Consider 7 molecules from EP2140864A2 (H. Lundbeck A/S, priority 2001, dated 2002).

Structures are written as SMILES. Like-named read-outs stand apart in the source and are kept apart here. A value given as a limit tells only on which side of the number the result lay.

One experiment addresses T1, human 5HT6 (Homo sapiens, UniProt P50406).
T1 construct: expressed in transfected cells
The experiment can be described thus: Radioligand binding, 5-HT6 receptor. The protocol: Other 5-HT Receptors: Other serotonin receptor binding assays were performed according to published methods: rat 5HT2C receptor (Julius et al., 1988); and 5-HT6 (Monsma, et al., 1993). The binding assays using the 5-HT4 receptor were performed according to the procedures described in U.S. Patent No. 5,766,879, the disclosure of which is hereby incorporated by reference in its entirety into this application.
(§1) Binding data were analyzed using nonlinear regression and statistical techniques available in the GraphPAD Prism package (San Diego, CA). Enzymatic assay data were derived from a standard curve of reference compound data.

A further experiment concerns the target T2, human GAL2 receptor (Homo sapiens, UniProt O43603).
T2 construct: expressed in transfected cells
T2 sequence (O43603 1-387): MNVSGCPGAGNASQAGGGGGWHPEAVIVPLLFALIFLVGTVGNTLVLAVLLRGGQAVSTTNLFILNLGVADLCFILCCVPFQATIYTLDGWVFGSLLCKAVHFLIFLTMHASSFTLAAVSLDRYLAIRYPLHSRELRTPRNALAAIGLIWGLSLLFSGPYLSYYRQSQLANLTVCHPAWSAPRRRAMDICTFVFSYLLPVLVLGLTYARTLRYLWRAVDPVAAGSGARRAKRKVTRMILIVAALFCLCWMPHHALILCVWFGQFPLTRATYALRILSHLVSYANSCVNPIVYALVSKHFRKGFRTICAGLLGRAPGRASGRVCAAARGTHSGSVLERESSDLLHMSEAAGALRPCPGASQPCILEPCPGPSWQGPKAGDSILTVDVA
Description: Radioligand binding at cloned human GAL2 receptor. The method in brief: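 Membranes from CHO cells stably expressing human GAL2 and LM(tk-) cells stably expressing human GAL1, resuspended in binding buffer (10 mM NaCl, 20 mM HEPES, pH 7.4). Binding data fitted by nonlinear regression.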

For the next experiment, the target named is T3, human α2C adrenoceptor (Homo sapiens, UniProt P18825).
T3 construct: expressed in transfected cells
T3 sequence (P18825 1-462): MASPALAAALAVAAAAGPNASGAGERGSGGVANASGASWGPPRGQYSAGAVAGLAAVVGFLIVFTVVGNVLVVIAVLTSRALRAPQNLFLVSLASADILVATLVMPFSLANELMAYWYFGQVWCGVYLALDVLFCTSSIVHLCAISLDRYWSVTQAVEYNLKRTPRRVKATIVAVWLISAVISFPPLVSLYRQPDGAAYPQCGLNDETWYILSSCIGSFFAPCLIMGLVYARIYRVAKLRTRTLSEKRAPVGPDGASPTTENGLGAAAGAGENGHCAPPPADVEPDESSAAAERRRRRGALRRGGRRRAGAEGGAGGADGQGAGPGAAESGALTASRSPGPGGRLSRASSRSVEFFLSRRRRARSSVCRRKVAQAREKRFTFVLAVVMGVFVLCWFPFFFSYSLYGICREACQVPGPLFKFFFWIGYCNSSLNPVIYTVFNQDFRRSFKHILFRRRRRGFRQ
Description: Radioligand binding, α2C adrenergic receptor.
Excerpt: (§2) Other receptors: Cell membranes expressing human dopamine D1, D2, D4 and rat D3 receptors were purchased through BioSignal, Inc. (Montreal, Canada). Binding assays using the histamine H1 receptor; dopamine receptors; and α1A, α1E, and α2 adrenergic receptors may be carried out according to the procedures described in U.S. Patent No. 5,780,485, the disclosure of which is hereby incorporated by reference in its entirety into this application. Binding assays using the dopamine D5 receptor may be carried out according to the procedures described in U.S. Patent No. 5,882,855, the disclosure of which is hereby incorporated by reference in its entirety into this application. Binding assays for the human α1D adrenergic receptor may be carried out according to the procedures described in U.S. Patent No. 6,156,518, the disclosure of which is hereby incorporated by reference in its entirety into this application.
as §1

For a further experiment, the target named is T4, human 5HT1E (Homo sapiens, UniProt P28566).
T4 construct: expressed in transfected cells
T4 sequence (P28566 whole entry): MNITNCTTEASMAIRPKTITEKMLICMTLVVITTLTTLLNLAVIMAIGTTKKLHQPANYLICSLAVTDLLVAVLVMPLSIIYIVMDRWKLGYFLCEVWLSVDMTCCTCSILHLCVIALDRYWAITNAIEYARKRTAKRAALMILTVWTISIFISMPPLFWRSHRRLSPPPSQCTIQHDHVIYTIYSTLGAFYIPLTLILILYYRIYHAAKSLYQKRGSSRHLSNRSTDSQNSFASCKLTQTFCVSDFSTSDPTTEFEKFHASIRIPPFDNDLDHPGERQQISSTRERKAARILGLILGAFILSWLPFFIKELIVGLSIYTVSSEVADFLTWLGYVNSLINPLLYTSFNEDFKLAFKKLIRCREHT
Description: Radioligand binding, 5HT1E receptor ([3H]-serotonin). How it is done: Human 5HT1B, 5HT1D, 5HT1E, 5HT1F, and 5HT7 Receptors: The cell lysates of LM(tk-) clonal cell line stably transfected with the genes encoding each of these 5HT receptor-subtypes were prepared as described above. Cell membranes were suspended in 50mM Tris-HCl buffer (pH 7.4 at 37°C) containing 10 mM MgCl2, 0.2 mM EDTA, 10 µM pargyline, and 0.1% ascorbate. […] Nonspecific binding was determined in the presence of 10 µM serotonin. The bound radioligand was separated by filtration through GF/B filters using a cell harvester.
as §1

The target in a further experiment is T5, human dopamine D2 (Homo sapiens, UniProt P14416).
T5 construct: purchased BioSignal, Inc. (Montreal, Canada)
T5 sequence (P14416 whole entry): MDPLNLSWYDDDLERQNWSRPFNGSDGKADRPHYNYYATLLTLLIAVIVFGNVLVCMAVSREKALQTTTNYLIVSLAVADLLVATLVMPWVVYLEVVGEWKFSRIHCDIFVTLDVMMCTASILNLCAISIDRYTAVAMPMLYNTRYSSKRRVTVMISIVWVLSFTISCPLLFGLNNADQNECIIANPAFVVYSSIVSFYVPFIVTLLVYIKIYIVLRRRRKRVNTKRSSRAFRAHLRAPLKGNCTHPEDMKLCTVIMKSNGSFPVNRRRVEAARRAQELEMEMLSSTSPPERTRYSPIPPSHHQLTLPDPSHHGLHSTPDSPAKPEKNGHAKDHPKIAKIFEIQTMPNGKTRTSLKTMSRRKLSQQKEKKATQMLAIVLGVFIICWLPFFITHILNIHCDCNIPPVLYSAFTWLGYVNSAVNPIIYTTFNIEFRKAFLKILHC
The experiment can be described thus: Radioligand binding, dopamine D2 receptor.
Excerpt: as §2, §1

Where [1] appears, read: Table 8; Ki h5HT6 divided by Ki hGAL3.
[2] abbreviates: pyrimidines, read-out: Ki GalR2.
[3] abbreviates: Table 10; Ki hα2C divided by Ki hGAL3.
Where [4] appears, read: Table 8; Ki h5HT1E divided by Ki hGAL3.
[5] abbreviates: Table 10; Ki hD2 divided by Ki hGAL3.

T1 sequence (P50406 whole entry): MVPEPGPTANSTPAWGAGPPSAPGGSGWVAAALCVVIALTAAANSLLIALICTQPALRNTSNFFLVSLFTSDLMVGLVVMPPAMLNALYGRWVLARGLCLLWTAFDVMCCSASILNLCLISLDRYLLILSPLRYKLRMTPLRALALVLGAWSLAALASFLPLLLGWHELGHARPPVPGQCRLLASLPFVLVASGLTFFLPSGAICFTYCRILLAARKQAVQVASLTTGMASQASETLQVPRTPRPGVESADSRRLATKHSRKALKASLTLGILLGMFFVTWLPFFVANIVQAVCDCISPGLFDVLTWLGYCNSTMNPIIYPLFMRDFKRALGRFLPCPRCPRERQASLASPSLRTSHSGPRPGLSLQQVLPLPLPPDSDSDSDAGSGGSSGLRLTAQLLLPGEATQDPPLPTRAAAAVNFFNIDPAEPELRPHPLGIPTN

Consider `Cc1ccc(Nc2cc(N3CCCCC3)nc(N(C)CCc3c[nH]c4ccccc34)n2)cc1` [Example 11], for which the Ki at human 5HT6 (Table 7; read-out: h5HT6 Ki) was determined as 0.8 µM; at human GAL2 receptor (setting [2]), 0.681 µM; on human α2C adrenoceptor (Table 9; read-out: hα2C Ki), 3 µM; at human 5HT1E (Table 7; read-out: h5HT1E Ki), 9.17 µM; on human dopamine D2 (Table 9; read-out: hD2 Ki) it was 0.782 µM. For the same molecule, on human 5HT6 (setting [1]), the “selectivity ratio h5HT6” value worked out at 9. Moreover, the “selectivity ratio hα2C” value at human α2C adrenoceptor (setting [3]) is listed as greater than 30. The “selectivity ratio h5HT1E” value on human 5HT1E (setting [4]) was greater than 100. Moreover, on human dopamine D2 (setting [5]), the “selectivity ratio hD2” value is 9.
`CN(CCc1c[nH]c2ccccc12)c1nc(Nc2ccc(F)c(F)c2)cc(N2CCCCC2)n1` [Example 15]: the Ki at human 5HT6 (Table 7; read-out: h5HT6 Ki) was 1.46 µM; at human GAL2 receptor (setting [2]), 0.624 µM; on human α2C adrenoceptor (Table 9; read-out: hα2C Ki), 8.2 µM; on human 5HT1E (Table 7; read-out: h5HT1E Ki), 11 µM; on human dopamine D2 (Table 9; read-out: hD2 Ki), 2.18 µM. Moreover, the “selectivity ratio h5HT6” value at human 5HT6 (setting [1]) is 20. For the same molecule, at human α2C adrenoceptor (setting [3]), the “selectivity ratio hα2C” value is given as greater than 100. Further, the “selectivity ratio h5HT1E” value on human 5HT1E (setting [4]) is greater than 100. For the same molecule, the “selectivity ratio hD2” value on human dopamine D2 (setting [5]) is reported as 30.
Consider `COc1cccc(Nc2cc(N3CCCCC3)nc(N(C)CCc3c[nH]c4ccccc34)n2)c1` [Example 17], for which the inhibitory constant (Ki) at human 5HT6 (Table 7; read-out: h5HT6 Ki) is 0.711 µM; on human GAL2 receptor (setting [2]) it was 2.09 µM; at human α2C adrenoceptor (Table 9; read-out: hα2C Ki), 10.3 µM; at human 5HT1E (Table 7; read-out: h5HT1E Ki) it was 33.5 µM; on human dopamine D2 (Table 9; read-out: hD2 Ki), 1.81 µM. For the same molecule, the “selectivity ratio h5HT6” value on human 5HT6 (setting [1]) is reported as 8. Moreover, the “selectivity ratio hα2C” value on human α2C adrenoceptor (setting [3]) is reported as greater than 100. Further, the “selectivity ratio h5HT1E” value at human 5HT1E (setting [4]) was greater than 100. On human dopamine D2 (setting [5]), the “selectivity ratio hD2” value was found to be 21.
Take `Cc1ccc(Nc2cc(N3CCCCC3)nc(N(C)CCc3ccccc3)n2)cc1` [Example 22]: the Ki at human 5HT6 (Table 7; read-out: h5HT6 Ki) came out at 2.26 µM; at human GAL2 receptor (setting [2]) it was 0.176 µM; on human α2C adrenoceptor (Table 9; read-out: hα2C Ki), 2.74 µM; at human 5HT1E (Table 7; read-out: h5HT1E Ki) it was 13.2 µM; on human dopamine D2 (Table 9; read-out: hD2 Ki), 1.5 µM. The “selectivity ratio h5HT6” value on human 5HT6 (setting [1]) is greater than 30. On human α2C adrenoceptor (setting [3]), the “selectivity ratio hα2C” value is greater than 100. Besides, the “selectivity ratio h5HT1E” value at human 5HT1E (setting [4]) was greater than 100. For the same molecule, the “selectivity ratio hD2” value at human dopamine D2 (setting [5]) is on record as greater than 30.
With `Cc1ccc(Nc2cc(N3CCCCC3)nc(N3CCN(c4ncccc4C(F)(F)F)CC3)n2)cc1` [Example 34], the Ki at human 5HT6 (Table 7; read-out: h5HT6 Ki) was found to be 38.9 µM; on human GAL2 receptor (setting [2]) it was 0.168 µM; at human α2C adrenoceptor (Table 9; read-out: hα2C Ki), 8.83 µM; at human 5HT1E (Table 7; read-out: h5HT1E Ki), 28.3 µM; on human dopamine D2 (Table 9; read-out: hD2 Ki), 2.5 µM. Further, the “selectivity ratio h5HT6” value at human 5HT6 (setting [1]) is greater than 100. Further, the “selectivity ratio hα2C” value at human α2C adrenoceptor (setting [3]) is recorded as greater than 100. In addition, at human 5HT1E (setting [4]), the “selectivity ratio h5HT1E” value is given as greater than 100. Moreover, the “selectivity ratio hD2” value on human dopamine D2 (setting [5]) was greater than 100.
Take `COC[C@@H]1[C@@H](c2ccccc2)OCCN1c1nc(Nc2ccc(C)cc2)cc(N2CCCCC2)n1` [Example 49]: the Ki amounted to 0.013 µM at human 5HT6 (read-out: h5HT6 Ki; Table 7); 3.27 µM at human GAL2 receptor (read-out: Ki GalR2, pyrimidines); 9.24 µM at human α2C adrenoceptor (read-out: hα2C Ki; Table 9); 23.9 µM on human 5HT1E (read-out: h5HT1E Ki; Table 7); 5.94 µM at human dopamine D2 (read-out: hD2 Ki; Table 9). In addition, at human α2C adrenoceptor (setting [3]), the “selectivity ratio hα2C” value is listed as greater than 30. Also, the “selectivity ratio h5HT1E” value at human 5HT1E (setting [4]) was greater than 100. In addition, the “selectivity ratio hD2” value at human dopamine D2 (setting [5]) is listed as 28.
Take `CN(C)c1cc(Nc2ccc(Cl)c(Cl)c2)nc(Nc2ccccc2)n1` [Example 60]: the Ki on human 5HT6 (Table 7; read-out: h5HT6 Ki) is 47.5 µM; on human GAL2 receptor (setting [2]), greater than 5 µM; on human α2C adrenoceptor (Table 9; read-out: hα2C Ki), 7.2 µM; at human 5HT1E (Table 7; read-out: h5HT1E Ki), 1.18 µM; at human dopamine D2 (Table 9; read-out: hD2 Ki), 26.8 µM. Moreover, on human 5HT6 (setting [1]), the “selectivity ratio h5HT6” value was greater than 100. For the same molecule, at human α2C adrenoceptor (setting [3]), the “selectivity ratio hα2C” value is reported as greater than 30. Further, the “selectivity ratio h5HT1E” value on human 5HT1E (setting [4]) came out at 14. Moreover, the “selectivity ratio hD2” value at human dopamine D2 (setting [5]) is recorded as greater than 100.

As a reminder, the Ki is the dissociation constant of the complex between target and ligand, obtained from inhibition or displacement.
